In patent US5624923A, “Tricyclic diazepine vasopressin antagonists and oxytocin antagonists” (priority 1995, dated 1997):
One block for each compound: values may come before it.

Columns and labels:
[1] = target: T1, Rat Kidney Medullary V2 Receptors (Rattus norvegicus, UniProt Q00788); experiment: Binding Assay to Rat Kidney Medullary V2 Receptors; conditions: for IC50: rat kidney medulla membranes, read-out: V2 IC50
T1 construct: Medullary tissues from rat kidneys are dissected out; from tissue; host or cells: rat kidney medulla membranes
In short: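 Membranes were prepared from rat kidney medulla and stored in 50.0 mM Tris-HCl pH 7.4 with 0.2% BSA and 0.1 mM PMSF. Radioligand competition ran 120 min at bench temperature, with 1.0 μM unlabeled ligand defining nonspecific binding. Compounds were added in 50% DMSO; filtration, tritium scintillation counting, IC50 from competition analysis.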

[2] = tested on: Vasopressin V1; experiment: Vasopressin V1 Antagonist Activity in Conscious Rats (vasopressin vasopressor response); format: in vivo, rat; parameters: Average Change: unit not given here; conditions: for % Inhibition / Average Change: SHR
In short: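 Conscious rats are restrained supine, and under local 2% procaine a PE 10/20 cannula is passed through the ventral caudal tail artery into the lower abdominal aorta. The caudal vein is cannulated for intravenous dosing. Blood pressure is recorded with a Statham P23Db transducer, and vasopressin injections are repeated after compound dosing. Percent antagonism is calculated against the pre-drug vasopressor response taken as 100%.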

[3] = target: T2, oxytocin receptors (Rattus norvegicus, UniProt P70536); experiment: Oxytocin Receptor Binding; conditions: for IC50: 1.0 nM [3H]oxytocin; for inhibition at 10 µM: [3H]oxytocin
T2 construct: The uteri are dissected out, cleaned of fat and connective tissues; from tissue; host or cells: uterus of DES-treated female Sprague-Dawley rats
T2 sequence (P70536 1-388): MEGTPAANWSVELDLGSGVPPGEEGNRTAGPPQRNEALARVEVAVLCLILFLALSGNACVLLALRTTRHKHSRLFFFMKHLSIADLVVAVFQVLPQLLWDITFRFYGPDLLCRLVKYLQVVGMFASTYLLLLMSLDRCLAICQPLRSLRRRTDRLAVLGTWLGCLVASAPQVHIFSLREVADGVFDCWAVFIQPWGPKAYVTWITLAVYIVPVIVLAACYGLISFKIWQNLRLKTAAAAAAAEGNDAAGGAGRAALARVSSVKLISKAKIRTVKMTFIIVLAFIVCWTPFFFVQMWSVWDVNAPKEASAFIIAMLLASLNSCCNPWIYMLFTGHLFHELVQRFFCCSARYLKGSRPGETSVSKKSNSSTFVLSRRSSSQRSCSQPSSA
In short: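 Membranes from uteri of DES-primed (0.3 mg/kg i.m., 18 h) female Sprague-Dawley rats. Competition with 1.0 nM [3H]oxytocin in 50 mM Tris.HCl pH 7.4, 5 mM MgCl2 with protease inhibitors, 60 min at 22 °C, filtration read-out. Non-specific binding with 1.0 uM unlabeled OT; IC50 calculated.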

[4] = 10 mg/kg i.v., VAS 0.01 i.u./kg, 30 min
[5] = 10 mg/kg i.v., VAS 0.01 i.u./kg, 60 min
[6] = 10 mg/kg i.v., VAS 0.01 i.u./kg, 90 min
[7] = 10 mg/kg i.v., VAS 0.01 i.u./kg, 120 min
[8] = 10 mg/kg i.v., VAS 0.01 i.u./kg, 180 min
[9] = 10 mg/kg i.v., VAS 0.01 i.u./kg, 240 min
[10] = 10 mg/kg i.v., VAS 0.01 i.u./kg, 300 min
[11] = 10 mg/kg i.v., VAS 0.02 i.u./kg, 30 min
[12] = 10 mg/kg i.v., VAS 0.02 i.u./kg, 60 min
[13] = 10 mg/kg i.v., VAS 0.02 i.u./kg, 90 min
[14] = 10 mg/kg i.v., VAS 0.02 i.u./kg, 120 min
[15] = 10 mg/kg i.v., VAS 0.02 i.u./kg, 180 min
[16] = 10 mg/kg i.v., VAS 0.02 i.u./kg, 240 min
[17] = 10 mg/kg i.v., VAS 0.02 i.u./kg, 300 min

T1 sequence (Q00788 whole entry): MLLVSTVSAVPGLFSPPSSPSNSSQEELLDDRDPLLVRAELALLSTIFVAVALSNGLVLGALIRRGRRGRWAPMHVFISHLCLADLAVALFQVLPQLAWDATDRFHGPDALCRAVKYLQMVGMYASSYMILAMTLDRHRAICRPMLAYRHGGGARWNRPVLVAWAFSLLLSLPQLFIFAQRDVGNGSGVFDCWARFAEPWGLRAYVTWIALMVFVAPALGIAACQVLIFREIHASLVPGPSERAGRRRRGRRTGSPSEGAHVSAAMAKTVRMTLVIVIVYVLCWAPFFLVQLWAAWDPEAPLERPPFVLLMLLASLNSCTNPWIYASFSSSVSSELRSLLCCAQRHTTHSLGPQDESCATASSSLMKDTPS

IC50 [1]: 3.4 nM
IC50 [3]: 240 nM
inhibition at 10 µM [3]: 88%
Structure (SMILES): Cc1c(F)cccc1C(=O)Nc1ccc(C(=O)N2Cc3cccn3Cc3ccccc32)c(Cl)c1 [Example 481, N-[4-(5H-pyrrolo[2,1-c][1,4]benzodiazepin-10(11H)-ylcarbonyl)-3-chlorophenyl]-3-fluoro-2-methylbenzamide]
Max. % Inhibition ([2]; 30 mg/kg p.o.): 58%
Time (of max. % inhibition) ([2]; 30 mg/kg p.o.): 80 min

IC50 [1]: 14 nM
IC50 [3]: 675 nM
inhibition at 10 µM [3]: 96%
Structure (SMILES): O=C(Nc1ccc(C(=O)N2Cc3ccc(Cn4ccnc4)n3Cc3ccccc32)cc1)c1ccc(Cl)cc1Cl [Example 582, 2,4-Dichloro-N-[4-[[3-(1H-imidazol-1-ylmethyl)-5H-pyrrolo[2,1-c][1,4]benzodiazepin-10(11H)-yl]carbonyl]phenyl]benzamide]
Max. % Inhibition ([2]; 10 mg/kg i.v.): 75%
Time (of max. % inhibition) ([2]; 10 mg/kg i.v.): 170 min

IC50 [1]: 69 nM
IC50 [3]: 820 nM
inhibition at 10 µM [3]: 94%
Structure (SMILES): O=C(Nc1ccc(C(=O)N2Cc3cccn3Cc3ccccc32)cc1)c1sccc1Cl [Example 476, N-[4-(5H-pyrrolo[2,1-c][1,4]benzodiazepin-10(11H)-ylcarbonyl)phenyl]-3-chlorothiophene-2-carboxamide]
Max. % Inhibition ([2]; 10 mg/kg i.v.): 78%
Time (of max. % inhibition) ([2]; 10 mg/kg i.v.): 30 min
Max. % Inhibition ([2]; 30 mg/kg p.o.): 19%
Time (of max. % inhibition) ([2]; 30 mg/kg p.o.): 180 min

IC50 [1]: 15 nM
IC50 [3]: 320 nM
inhibition at 10 µM [3]: 91%
Structure (SMILES): Cc1c(F)cccc1C(=O)Nc1ccc(C(=O)N2Cc3ccnn3Cc3ccccc32)cc1 [Example 517, N-[4-(4H-Pyrazolo[5,1-c][1,4]benzodiazepin-5(10H)-ylcarbonyl)phenyl]-3-fluoro-2-methylbenzamide]
Max. % Inhibition ([2]; 10 mg/kg i.v.): 81%
Time (of max. % inhibition) ([2]; 10 mg/kg i.v.): 90 min

IC50 [1]: 14 nM
IC50 [3]: 350 nM
inhibition at 10 µM [3]: 92%
Structure (SMILES): O=C(Nc1ccc(C(=O)N2Cc3cccn3Cc3ccccc32)cc1)c1cc(Cl)cc(Cl)c1Cl [Example 599, N-[4-(5H-Pyrrolo[2,1-c][1,4]benzodiazepin-10(11H)-ylcarbonyl)phenyl]-2,3,5-trichlorobenzamide]
Max. % Inhibition ([2]; 30 mg/kg i.v.): 86%
Time (of max. % inhibition) ([2]; 30 mg/kg i.v.): 90 min

inhibition at 10 µM ([1]; 10 μM, rat): 81%
inhibition at 10 µM [3]: 12%
Structure (SMILES): O=C(CN1CCOCC1)Nc1ccc(C(=O)N2Cc3cccn3Cc3ccccc32)cc1 [Example 590, N-[4-(5H-pyrrolo[2,1-c][1,4]benzodiazepin-10(11H)-ylcarbonyl)phenyl]-4-morpholineacetamide]
Max. % Inhibition ([2]; 30 mg/kg i.v.): 89%
Time (of max. % inhibition) ([2]; 30 mg/kg i.v.): 120 min

IC50 [1]: 15 nM
IC50 [3]: 265 nM
inhibition at 10 µM [3]: 96%
Structure (SMILES): O=C(Nc1ccc(C(=O)N2Cc3cccn3Cc3ccccc32)cc1)c1c(Cl)cccc1Cl [Example 469, N-[4-(5H-pyrrolo[2,1-c][1,4]benzodiazepin-10(11H)-ylcarbonyl)phenyl]-2,6-dichlorobenzamide]
Max. % Inhibition ([2]; 10 mg/kg i.v.): 69%
Time (of max. % inhibition) ([2]; 10 mg/kg i.v.): 30 min

IC50 [1]: 5.3 nM
IC50 [3]: 200 nM
inhibition at 10 µM [3]: 99%
Structure (SMILES): O=C(Nc1ccc(C(=O)N2Cc3ccc(CO)n3Cc3ccccc32)cc1)c1ccc(Cl)cc1Cl [Example 581, 2,4-Dichloro-N-[4-[[3-(hydroxymethyl)-5H-pyrrolo[2,1-c][1,4]benzodiazepin-10(11H)-yl]carbonyl]phenyl]benzamide]
Max. % Inhibition ([2]; 10 mg/kg i.v.): 94%
Time (of max. % inhibition) ([2]; 10 mg/kg i.v.): 30 min
Max. % Inhibition ([2]; 30 mg/kg p.o.): 79%
Time (of max. % inhibition) ([2]; 30 mg/kg p.o.): 30 min

IC50 [1]: 3 nM
IC50 [3]: 350 nM
inhibition at 10 µM [3]: 92%
Structure (SMILES): O=C(Nc1ccc(C(=O)N2Cc3cccn3Cc3ccccc32)cc1)c1ccc(Cl)cc1Cl [Example 6, N-[4-(5H-pyrrolo[2,1-c][1,4]benzodiazepin-10(11H)-ylcarbonyl)phenyl]-2,4-dichlorobenzamide]
% Inhibition [2, 4]: 85%
Average Change [2, 4]: 5.5
% Inhibition [2, 5]: 79%
Average Change [2, 5]: 7.5
% Inhibition [2, 6]: 63%
Average Change [2, 6]: 13.5
% Inhibition [2, 7]: 59%
Average Change [2, 7]: 15
% Inhibition [2, 8]: 44%
Average Change [2, 8]: 20.5
% Inhibition [2, 9]: 34%
Average Change [2, 9]: 24
% Inhibition [2, 10]: 30%
Average Change [2, 10]: 25.5
% Inhibition [2, 11]: 62%
Average Change [2, 11]: 16
% Inhibition [2, 12]: 45%
Average Change [2, 12]: 23
% Inhibition [2, 13]: 36%
Average Change [2, 13]: 27
% Inhibition [2, 14]: 30%
Average Change [2, 14]: 29.5
% Inhibition [2, 15]: 17%
Average Change [2, 15]: 35
% Inhibition [2, 16]: 15%
Average Change [2, 16]: 35.5
% Inhibition [2, 17]: 14%
Average Change [2, 17]: 36

IC50 [1]: 12 nM
IC50 [3]: 2000 nM
inhibition at 10 µM [3]: 90%
Structure (SMILES): O=C(Nc1ccc(C(=O)N2Cc3cccn3Cc3ccccc32)cc1)C(O)c1ccccc1 (racemic) [Example 588, (±) α-Hydroxy-N-[4-(5H-pyrrolo[2,1c][1,4]benzodiazepin-10(11H)-ylcarbonyl)phenyl]benzeneacetamide]
Max. % Inhibition ([2]; 10 mg/kg i.v.): 65%
Time (of max. % inhibition) ([2]; 10 mg/kg i.v.): 90 min
Max. % Inhibition ([2]; 30 mg/kg p.o.): 80%
Time (of max. % inhibition) ([2]; 30 mg/kg p.o.): 120 min
